system: GDF8 signaling (p-SMAD-3 (Ser423/425)); experiment: AlphaScreen SureFire SMAD3 (p-Ser423/425) assay, GDF8-stimulated cells (GDF pSMAD); assay type: cell-based; conditions: Mus musculus, MPC-11, MPC11; GDF8-stimulated; p-SMAD3 AlphaScreen; read-out: GDF pSMAD (MPC11) (inhibition of GDF8 signaling)

SMILES | IC50 [nM]
Cc1cc(-c2ncc(CN3CCN(C)CC3)cc2-c2ccc3nccnc3c2)ccc1F [compound 230, 6-(2-(4-Fluoro-3-methylphenyl)-5-((4-methylpiperazin-1-yl)methyl)pyridin-3-yl)quinoxaline] | 10800
Cc1cccc(-c2ncccc2-c2ccc3c(cnn3C)c2)c1 [Compound 146, 1-Methyl-5-(2-m-tolylpyridin-3-yl)-1H-indazole] | 621
Cc1cc(-c2ncccc2-c2ccc3ncnn3c2)ccc1F [Compound 191, 6-(2-(4-Fluoro-3-methylphenyl)pyridin-3-yl)-[1,2,4]triazolo[1,5-a]pyridine] | 663
Cc1cc(-c2ncccc2-c2ccc3nc(N)ncc3c2)ccc1F [compound 383, 6-(2-(4-Fluoro-3-methylphenyl)pyridin-3-yl)quinazolin-2-amine] | 16700
Cc1cc(-c2ncccc2-c2ccn3c(C(=O)NCCCN4CCCC4=O)ncc3c2)ccc1F [compound 274, 7-(2-(4-Fluoro-3-methylphenyl)pyridin-3-yl)-N-(3-(2-oxopyrrolidin-1-yl)propyl)imidazo[1,5-a]pyridine-3-carboxamide] | 14800
Cc1cc(-c2ncc(NC(=O)CCN3CCOCC3)cc2-c2ccc3ncsc3c2)ccc1F [compound 312, N-(5-(Benzo[d]thiazol-6-yl)-6-(4-fluoro-3-methylphenyl)pyridin-3-yl)-3-morpholinopropanamide] | 7540
Cc1cc(-c2ncccc2-c2ccc3ncncc3c2)ccc1F [compound 363, 6-(2-(4-Fluoro-3-methylphenyl)pyridin-3-yl)quinazoline] | 903
CN(C)CCOc1ncnc2ccc(-c3cccnc3-c3ccc(F)c(Cl)c3)cc12 [compound 439, 2-((6-(2-(3-Chloro-4-fluorophenyl)pyridin-3-yl)quinazolin-4-yl)oxy)-N,N-dimethylethan-1-amine] | 738
Cc1cc(-c2ncccc2-c2ccc3ncc(C(=O)NCCO)n3c2)ccc1F [compound 705, 6-(2-(4-Fluoro-3-methylphenyl)pyridin-3-yl)-N-(2-hydroxyethyl)imidazo[1,2-a]pyridine-3-carboxamide] | 122
Nc1ncnc2ccc(-c3cccnc3-c3cc(F)cc(Cl)c3)cc12 [compound 460, 6-(2-(3-Chloro-5-fluorophenyl)pyridin-3-yl)quinazolin-4-amine] | 129
Cc1cccc(-c2ncc(NC(=O)NC(C)C)cc2-c2ccc3[nH]ncc3c2)c1 [compound 214, 1-(5-(1H-Indazol-5-yl)-6-(m-tolyl)pyridin-3-yl)-3-isopropylurea] | 2640
CCN(CC)CCOc1ncnc2ccc(-c3cccnc3-c3ccc(F)c(Cl)c3)cc12 [compound 438, 2-((6-(2-(3-Chloro-4-fluorophenyl)pyridin-3-yl)quinazolin-4-yl)oxy)-N,N-diethylethan-1-amine] | 959
Cc1cccc(-c2ncccc2-c2ccn3nccc3c2)c1 [compound 757, 5-(2-(m-Tolyl)pyridin-3-yl)pyrazolo[1,5-a]pyridine] | 127
COc1ncnc2ccc(-c3cccnc3-c3cc(Cl)ccc3F)cc12 [compound 820, 6-(2-(5-Chloro-2-fluorophenyl)pyridin-3-yl)-4-methoxyquinazoline] | 3060
Cc1cc(-c2ncc(NC3CC3)cc2-c2ccc3[nH]ncc3c2)ccc1F [compound 212, N-Cyclopropyl-6-(4-fluoro-3-methylphenyl)-5-(1H-indazol-5-yl)pyridin-3-amine] | 18400
N#Cc1cnn2ccc(-c3cccnc3-c3ccc(F)c(Cl)c3)nc12 [compound 900, 5-(2-(3-Chloro-4-fluorophenyl)pyridin-3-yl)pyrazolo[1,5-a]pyrimidine-3-carbonitrile] | 2350
NC(=O)c1ccnc2ccc(-c3cccnc3-c3cc(Cl)c(F)cc3F)cc12 [compound 850, 6-(2-(5-Chloro-2,4-difluorophenyl)pyridin-3-yl)quinoline-4-carboxamide] | 20700
Clc1cccc(-c2ncccc2-c2ccc3nccn3n2)c1 [compound 936, 6-(2-(3-Chlorophenyl)pyridin-3-yl)imidazo[1,2-b]pyridazine] | 228

From patent publication US10858335B2 (Rigel Pharmaceuticals, Inc., priority 2014, dated 2020)
